PubChem BioAssay (NCI)
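Protocol summary: plate cells (96-well), add compound at 5 concentrations, incubate 48 h, interpolate endpoints linearly. TGI marks complete inhibition of growth.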

How the values were obtained:
Assay in all cases: inhibition of tumour cell growth, NCI panel, 48 h
IGROV1 ovarian = system: IGROV1 ovarian
SK-MEL-5 melanoma = system: SK-MEL-5 melanoma
LOX IMVI melanoma = system: LOX IMVI melanoma
HOP-18 NSCLC = system: HOP-18 NSCLC
UO-31 renal = system: UO-31 renal
RPMI-8226 leukemia = system: RPMI-8226 leukemia
HCT-15 colon = system: HCT-15 colon
SN12C renal = system: SN12C renal
SW-620 colon = system: SW-620 colon
UACC-257 melanoma = system: UACC-257 melanoma
NCI-H226 lung = system: NCI-H226 lung
ACHN renal = system: ACHN renal
HT29 colon = system: HT29 colon
NCI-H460 lung = system: NCI-H460 lung
NCI-H522 lung = system: NCI-H522 lung
MALME-3M melanoma = system: MALME-3M melanoma
M19-MEL melanoma = system: M19-MEL melanoma
RXF 393 renal = system: RXF 393 renal
HCT-116 colon = system: HCT-116 colon
OVCAR-3 ovarian = system: OVCAR-3 ovarian
HOP-62 NSCLC = system: HOP-62 NSCLC
SF-539 CNS = system: SF-539 CNS
HL-60(TB) leukemia = system: HL-60(TB) leukemia
CCRF-CEM leukemia = system: CCRF-CEM leukemia
K-562 leukemia = system: K-562 leukemia
XF 498 CNS = system: XF 498 CNS
A549 NSCLC = system: A549 NSCLC
SNB-19 CNS = system: SNB-19 CNS
SK-OV-3 ovarian = system: SK-OV-3 ovarian
KM20L2 colon = system: KM20L2 colon
DLD-1 colon = system: DLD-1 colon
EKVX NSCLC = system: EKVX NSCLC
M14 melanoma = system: M14 melanoma
OVCAR-8 ovarian = system: OVCAR-8 ovarian
NCI-H23 lung = system: NCI-H23 lung
SF-295 CNS = system: SF-295 CNS
COLO 205 colon = system: COLO 205 colon
UACC-62 melanoma = system: UACC-62 melanoma
SK-MEL-2 melanoma = system: SK-MEL-2 melanoma
TK-10 renal = system: TK-10 renal
MOLT-4 leukemia = system: MOLT-4 leukemia
786-0 renal = system: 786-0 renal
DMS 114 small cell lung = system: DMS 114 small cell lung
SK-MEL-28 melanoma = system: SK-MEL-28 melanoma
SNB-75 CNS = system: SNB-75 CNS
KM12 colon = system: KM12 colon
U251 CNS = system: U251 CNS
DMS 273 small cell lung = system: DMS 273 small cell lung
OVCAR-4 ovarian = system: OVCAR-4 ovarian
OVCAR-5 ovarian = system: OVCAR-5 ovarian
HCC-2998 colon = system: HCC-2998 colon
RXF-631 renal = system: RXF-631 renal
SR leukemia = system: SR leukemia
SF-268 CNS = system: SF-268 CNS
CAKI-1 renal = system: CAKI-1 renal

O=C(Nc1cc(Cl)ccc1Cl)c1cc2cccc(Br)c2oc1=O
TGI (IGROV1 ovarian): > 100 µM | TGI (SK-MEL-5 melanoma): > 100 µM | TGI (LOX IMVI melanoma): > 100 µM | TGI (HOP-18 NSCLC): > 100 µM | TGI (UO-31 renal): > 100 µM | TGI (RPMI-8226 leukemia): > 100 µM | TGI (HCT-15 colon): > 100 µM | TGI (SN12C renal): > 100 µM | TGI (SW-620 colon): > 100 µM | TGI (UACC-257 melanoma): > 100 µM | TGI (NCI-H226 lung): > 100 µM | TGI (ACHN renal): > 100 µM | TGI (HT29 colon): > 100 µM | TGI (NCI-H460 lung): > 100 µM | TGI (NCI-H522 lung): > 100 µM | TGI (MALME-3M melanoma): > 100 µM | TGI (M19-MEL melanoma): > 100 µM | TGI (RXF 393 renal): > 100 µM | TGI (HCT-116 colon): > 100 µM | TGI (OVCAR-3 ovarian): > 100 µM | TGI (HOP-62 NSCLC): > 100 µM | TGI (SF-539 CNS): > 100 µM | TGI (HL-60(TB) leukemia): > 100 µM | TGI (CCRF-CEM leukemia): > 100 µM | TGI (K-562 leukemia): > 100 µM | TGI (XF 498 CNS): 72.6 µM | TGI (A549 NSCLC): > 100 µM | TGI (SNB-19 CNS): > 100 µM | TGI (SK-OV-3 ovarian): > 100 µM | TGI (KM20L2 colon): > 100 µM | TGI (DLD-1 colon): > 100 µM | TGI (EKVX NSCLC): > 100 µM | TGI (M14 melanoma): > 100 µM | TGI (OVCAR-8 ovarian): > 100 µM | TGI (NCI-H23 lung): > 100 µM | TGI (SF-295 CNS): > 100 µM | TGI (COLO 205 colon): > 100 µM | TGI (UACC-62 melanoma): > 100 µM | TGI (SK-MEL-2 melanoma): > 100 µM | TGI (TK-10 renal): > 100 µM | TGI (MOLT-4 leukemia): > 100 µM | TGI (786-0 renal): > 100 µM | TGI (DMS 114 small cell lung): > 100 µM | TGI (SK-MEL-28 melanoma): > 100 µM | TGI (SNB-75 CNS): > 100 µM | TGI (KM12 colon): > 100 µM | TGI (U251 CNS): > 100 µM | TGI (DMS 273 small cell lung): > 100 µM

NC(=O)COc1c(Br)cc(Br)cc1Br
TGI (SK-MEL-5 melanoma): > 100 µM | TGI (UO-31 renal): > 100 µM | TGI (RPMI-8226 leukemia): > 100 µM | TGI (HCT-15 colon): > 100 µM | TGI (SN12C renal): > 100 µM | TGI (UACC-257 melanoma): > 100 µM | TGI (NCI-H226 lung): > 100 µM | TGI (ACHN renal): > 100 µM | TGI (HT29 colon): > 100 µM | TGI (OVCAR-4 ovarian): > 100 µM | TGI (NCI-H460 lung): > 100 µM | TGI (NCI-H522 lung): > 100 µM | TGI (MALME-3M melanoma): > 100 µM | TGI (M19-MEL melanoma): > 100 µM | TGI (HCT-116 colon): > 100 µM | TGI (OVCAR-3 ovarian): > 100 µM | TGI (HOP-62 NSCLC): > 100 µM | TGI (OVCAR-5 ovarian): > 100 µM | TGI (SF-539 CNS): > 100 µM | TGI (CCRF-CEM leukemia): > 100 µM | TGI (K-562 leukemia): > 100 µM | TGI (XF 498 CNS): > 100 µM | TGI (HCC-2998 colon): > 100 µM | TGI (A549 NSCLC): > 100 µM | TGI (RXF-631 renal): > 100 µM | TGI (SNB-19 CNS): > 100 µM | TGI (SR leukemia): > 100 µM | TGI (SK-OV-3 ovarian): > 100 µM | TGI (KM20L2 colon): > 100 µM | TGI (SF-268 CNS): > 100 µM | TGI (DLD-1 colon): > 100 µM | TGI (EKVX NSCLC): > 100 µM | TGI (M14 melanoma): > 100 µM | TGI (OVCAR-8 ovarian): > 100 µM | TGI (NCI-H23 lung): > 100 µM | TGI (SF-295 CNS): > 100 µM | TGI (COLO 205 colon): > 100 µM | TGI (UACC-62 melanoma): > 100 µM | TGI (SK-MEL-2 melanoma): > 100 µM | TGI (MOLT-4 leukemia): > 100 µM | TGI (786-0 renal): > 100 µM | TGI (DMS 114 small cell lung): > 100 µM | TGI (SK-MEL-28 melanoma): > 100 µM | TGI (SNB-75 CNS): > 100 µM | TGI (KM12 colon): > 100 µM | TGI (U251 CNS): > 100 µM | TGI (DMS 273 small cell lung): > 100 µM | TGI (CAKI-1 renal): > 100 µM
